Where two headings read alike, the source gives them in different places.
Tests used:
[1] = system: A549 cells; experiment: cells; type: cell-based; conditions: for IC50: Homo sapiens
[2] = target: MRP1 (Homo sapiens, UniProt P33527); experiment: cell-based
[3] = in vitro; conditions: human, IC50 etoposide-induced growth inhibition
[4] = system: HEK control cells; experiment: cells; type: cell-based; conditions: Homo sapiens
[5] = A549, read-out: IC50 growth inhibition, co-treatment with 10 nM HN2
[6] = A549, read-out: IC50 growth inhibition, drug alone

Sequence of MRP1 (P33527 whole entry): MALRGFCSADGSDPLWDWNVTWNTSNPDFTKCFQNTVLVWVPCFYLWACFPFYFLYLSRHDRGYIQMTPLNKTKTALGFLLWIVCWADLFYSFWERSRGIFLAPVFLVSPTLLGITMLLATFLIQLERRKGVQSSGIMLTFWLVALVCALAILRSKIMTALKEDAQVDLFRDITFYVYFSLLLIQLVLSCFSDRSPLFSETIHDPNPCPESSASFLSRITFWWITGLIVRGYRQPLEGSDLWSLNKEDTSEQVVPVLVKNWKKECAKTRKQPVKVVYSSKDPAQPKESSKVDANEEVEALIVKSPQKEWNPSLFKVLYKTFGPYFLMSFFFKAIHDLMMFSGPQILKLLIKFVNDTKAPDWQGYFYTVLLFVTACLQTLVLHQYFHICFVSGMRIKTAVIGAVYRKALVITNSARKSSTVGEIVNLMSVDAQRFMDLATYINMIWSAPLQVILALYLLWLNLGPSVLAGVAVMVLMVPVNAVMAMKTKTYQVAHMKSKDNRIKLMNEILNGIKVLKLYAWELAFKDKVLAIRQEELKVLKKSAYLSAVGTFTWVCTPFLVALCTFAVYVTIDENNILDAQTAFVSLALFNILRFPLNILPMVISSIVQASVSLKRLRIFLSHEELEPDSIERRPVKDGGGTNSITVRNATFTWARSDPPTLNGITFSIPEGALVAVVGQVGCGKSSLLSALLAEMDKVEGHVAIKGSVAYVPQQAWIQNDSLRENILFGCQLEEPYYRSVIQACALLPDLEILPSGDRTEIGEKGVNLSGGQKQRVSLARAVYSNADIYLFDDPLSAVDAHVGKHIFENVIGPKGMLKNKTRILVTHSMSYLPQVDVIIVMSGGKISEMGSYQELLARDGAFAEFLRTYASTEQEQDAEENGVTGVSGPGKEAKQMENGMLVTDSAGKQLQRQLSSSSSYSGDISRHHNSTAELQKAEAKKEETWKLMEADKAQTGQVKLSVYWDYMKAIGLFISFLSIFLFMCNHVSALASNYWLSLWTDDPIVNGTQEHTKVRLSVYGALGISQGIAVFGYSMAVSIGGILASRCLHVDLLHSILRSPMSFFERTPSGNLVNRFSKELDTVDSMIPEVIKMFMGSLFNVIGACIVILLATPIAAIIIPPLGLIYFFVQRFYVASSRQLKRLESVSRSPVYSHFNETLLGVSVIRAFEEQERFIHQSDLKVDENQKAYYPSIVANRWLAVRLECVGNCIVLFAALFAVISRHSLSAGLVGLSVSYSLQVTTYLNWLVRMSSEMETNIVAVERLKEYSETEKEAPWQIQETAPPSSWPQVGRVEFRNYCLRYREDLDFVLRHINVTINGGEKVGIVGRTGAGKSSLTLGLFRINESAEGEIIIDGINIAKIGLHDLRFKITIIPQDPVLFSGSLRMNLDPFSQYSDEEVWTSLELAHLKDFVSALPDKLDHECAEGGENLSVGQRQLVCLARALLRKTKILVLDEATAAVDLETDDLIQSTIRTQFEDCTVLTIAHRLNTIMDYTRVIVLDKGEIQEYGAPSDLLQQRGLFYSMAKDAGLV

Compound	IC50 [1, 5]	IC50 [1, 6]	also measured
CN(C)C(=O)CCSC(SCCC(=O)O)c1cccc(/C=C/c2ccc3ccc(Cl)cc3n2)c1 (stereo not drawn) [MK-571]			Increase in sensitivity to MRP1 substrate drugs [1]: six-fold
CN(Cc1cnc2nc(N)nc(N)c2n1)c1ccc(C(=O)N[C@@H](CCC(=O)O)C(=O)O)cc1 [Methotrexate, methotrexate]	48 nM	230 nM	
CC[C@]1(O)C[C@H]2CN(CCc3c([nH]c4ccccc34)[C@@](C(=O)OC)(c3cc4c(cc3OC)N(C=O)[C@H]3[C@@](O)(C(=O)OC)[C@H](OC(C)=O)[C@]5(CC)C=CCN6CC[C@]43[C@@H]65)C2)C1 [Vincristine, vincristine]	45 nM	360 nM	
CCOC(=O)C#CC(=O)OCC [diethyl acetylenedicarboxylate]			IC50 [2]: 6 nM
COc1cc([C@@H]2c3cc4c(cc3[C@@H](O[C@@H]3O[C@@H]5CO[C@@H](C)O[C@H]5[C@H](O)[C@H]3O)[C@H]3COC(=O)[C@H]23)OCO4)cc(OC)c1O [etoposide]	75 nM	1000 nM	IC50 ([3]; co-treated with 10 nM HN2): 42 nM; IC50 ([3]; etoposide alone): 960 nM; IC50 ([4]; read-out: IC50 etoposide-induced growth inhibition, co-treatment with 3 nM HN2): 47 nM; IC50 ([4]; read-out: IC50 etoposide-induced growth inhibition, etoposide alone): 55 nM

— US10786542B2 (priority 2016, dated 2020)
